Measured values as given in ChEMBL document CHEMBL1122604, “(E)-2-(3,4-dimethoxyphenyl)-3-fluoroallylamine: a selective, enzyme-activated inhibitor of type B monoamine oxidase” (J Med Chem, 1984).
pKi: −log10 of the molar value. Several values for one entry are separate records, joined by “and”; a condition that tells them apart may be missing. Identical values can stand only once.

How the values were obtained:
[1] = The minimum half-life at apparent dissociation concentration of 40 uM at 10 degrees Centigrade.; assay type: ADME
[2] = target: T1, Amine oxidase [flavin-containing] B (Rattus norvegicus, UniProt P19643); test: Inhibition of monoamine oxidase (MAO) type B by administering the compound perorally at a dose level of 0.5 mg/(kg day).; assay type: functional; details: po
T1 sequence (P19643 whole entry): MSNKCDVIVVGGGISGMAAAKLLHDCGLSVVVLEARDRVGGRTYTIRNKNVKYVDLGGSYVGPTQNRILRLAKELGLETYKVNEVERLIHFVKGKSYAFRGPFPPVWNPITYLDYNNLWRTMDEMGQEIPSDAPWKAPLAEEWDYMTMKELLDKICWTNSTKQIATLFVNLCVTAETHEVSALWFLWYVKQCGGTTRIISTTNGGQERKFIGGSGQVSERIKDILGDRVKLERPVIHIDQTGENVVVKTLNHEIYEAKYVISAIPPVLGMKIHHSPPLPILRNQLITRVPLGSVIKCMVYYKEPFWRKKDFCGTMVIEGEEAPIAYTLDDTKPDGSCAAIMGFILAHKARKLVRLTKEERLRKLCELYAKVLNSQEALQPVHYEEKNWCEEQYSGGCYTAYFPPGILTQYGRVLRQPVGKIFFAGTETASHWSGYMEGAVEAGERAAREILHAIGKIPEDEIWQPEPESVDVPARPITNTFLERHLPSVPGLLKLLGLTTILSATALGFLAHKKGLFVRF

Rattus norvegicus = species: Rattus norvegicus; test: Compound was evaluated for apparent kinetic dissociation (Ki) using Kitz and Wilson method.; assay type: functional, organism-based
[3] = target: T2, Amine oxidase [flavin-containing] A (Rattus norvegicus, UniProt P21396); test: Inhibition of monoamine oxidase (MAO) type A by administering the compound perorally at a dose level of 2.5 mg/(kg day).; assay type: functional; details: po
T2 sequence (P21396 whole entry): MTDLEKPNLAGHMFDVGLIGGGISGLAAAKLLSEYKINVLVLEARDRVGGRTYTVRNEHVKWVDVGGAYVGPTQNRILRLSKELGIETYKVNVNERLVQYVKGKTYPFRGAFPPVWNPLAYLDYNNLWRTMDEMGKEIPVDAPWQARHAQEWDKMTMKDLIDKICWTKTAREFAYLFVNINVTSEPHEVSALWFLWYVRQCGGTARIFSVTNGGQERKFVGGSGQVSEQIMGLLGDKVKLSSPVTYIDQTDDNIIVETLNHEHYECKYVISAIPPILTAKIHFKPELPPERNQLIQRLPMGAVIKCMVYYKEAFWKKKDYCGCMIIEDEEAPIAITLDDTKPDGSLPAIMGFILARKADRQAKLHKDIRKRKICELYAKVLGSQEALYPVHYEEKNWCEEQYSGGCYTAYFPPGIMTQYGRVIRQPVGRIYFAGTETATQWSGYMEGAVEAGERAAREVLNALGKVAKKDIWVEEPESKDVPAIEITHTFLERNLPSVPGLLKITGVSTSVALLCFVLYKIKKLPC

[4] = target: T2, Amine oxidase [flavin-containing] A; test: Inhibition of monoamine oxidase (MAO) type A by administering the compound perorally at a dose level of 0.5 mg/(kg day).; assay type: functional; details: po
[5] = The minimum half-life at saturation concentration of 130 uM at 10 degrees Centigrade.; assay type: ADME; details: read-out: T50

T50 [1]: 1.7 min
Inhibition [2]: > 85%
pKi (Rattus norvegicus): 4.40 and 3.89
Inhibition [3]: 50%
Inhibition [4]: < 15%
half-life at 130 µM [5]: 14.5 min
Structure (SMILES): COc1ccc(/C(=C\F)CN)cc1OC.Cl
